Data published in ChEMBL document CHEMBL1152966, “Synthesis of 2alpha-propoxy-1alpha,25-dihydroxyvitamin D3 and comparison of its metabolism by human CYP24A1 and rat CYP24A1” (Bioorg Med Chem, 2009).

How the values were obtained:
[1] = target: T1, Vitamin D-binding protein (Homo sapiens) (UniProt P02774); test: Binding affinity to vitamin D-binding protein relative to 1-alpha,25-dihydroxyvitamin D3
T1 sequence (whole entry): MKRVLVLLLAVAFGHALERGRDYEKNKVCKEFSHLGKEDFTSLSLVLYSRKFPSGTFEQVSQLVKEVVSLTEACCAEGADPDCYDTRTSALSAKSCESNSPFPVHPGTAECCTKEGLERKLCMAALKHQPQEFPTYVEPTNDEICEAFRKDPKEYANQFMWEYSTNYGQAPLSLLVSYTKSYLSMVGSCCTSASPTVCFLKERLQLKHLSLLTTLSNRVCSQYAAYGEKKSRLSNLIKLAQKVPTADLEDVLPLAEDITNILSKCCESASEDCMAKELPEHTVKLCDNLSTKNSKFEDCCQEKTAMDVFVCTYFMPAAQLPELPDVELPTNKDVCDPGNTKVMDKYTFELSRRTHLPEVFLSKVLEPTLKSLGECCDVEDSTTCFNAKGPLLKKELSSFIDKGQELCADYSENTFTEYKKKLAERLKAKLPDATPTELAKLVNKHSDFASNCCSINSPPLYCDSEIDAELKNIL

[2] = target: T2, Vitamin D3 receptor (Bos taurus) (UniProt Q28037); test: Binding affinity to bovine thymus VDR relative to 1-alpha,25-dihydroxyvitamin D3
T2 sequence (whole entry): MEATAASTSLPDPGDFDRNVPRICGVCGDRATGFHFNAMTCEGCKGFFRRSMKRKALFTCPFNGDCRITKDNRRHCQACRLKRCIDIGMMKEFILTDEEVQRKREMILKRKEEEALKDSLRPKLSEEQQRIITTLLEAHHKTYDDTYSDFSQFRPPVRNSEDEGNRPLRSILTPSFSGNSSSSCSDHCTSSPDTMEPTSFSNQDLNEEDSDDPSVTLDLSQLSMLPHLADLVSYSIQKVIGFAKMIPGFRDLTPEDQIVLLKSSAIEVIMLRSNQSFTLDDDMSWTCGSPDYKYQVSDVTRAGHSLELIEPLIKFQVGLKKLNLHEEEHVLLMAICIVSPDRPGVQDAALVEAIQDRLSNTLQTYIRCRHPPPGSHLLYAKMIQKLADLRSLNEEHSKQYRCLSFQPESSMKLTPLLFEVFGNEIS

[3] = target: T2, Vitamin D3 receptor (Bos taurus); test: Displacement of [3H]1-alpha,25-dihydroxyvitamin D3 from calf thymus VDR by liquid scintillation counting
[4] = target: T3, 1,25-dihydroxyvitamin D(3) 24-hydroxylase, mitochondrial (Homo sapiens, UniProt Q07973); test: Binding affinity to human CYP24A1 expressed in Escherichia coli assessed as catalytic efficiency after 60 mins relative 1-alpha,25-dihydroxyvitamin D3; conditions: 1 h
T3 sequence (Q07973 whole entry): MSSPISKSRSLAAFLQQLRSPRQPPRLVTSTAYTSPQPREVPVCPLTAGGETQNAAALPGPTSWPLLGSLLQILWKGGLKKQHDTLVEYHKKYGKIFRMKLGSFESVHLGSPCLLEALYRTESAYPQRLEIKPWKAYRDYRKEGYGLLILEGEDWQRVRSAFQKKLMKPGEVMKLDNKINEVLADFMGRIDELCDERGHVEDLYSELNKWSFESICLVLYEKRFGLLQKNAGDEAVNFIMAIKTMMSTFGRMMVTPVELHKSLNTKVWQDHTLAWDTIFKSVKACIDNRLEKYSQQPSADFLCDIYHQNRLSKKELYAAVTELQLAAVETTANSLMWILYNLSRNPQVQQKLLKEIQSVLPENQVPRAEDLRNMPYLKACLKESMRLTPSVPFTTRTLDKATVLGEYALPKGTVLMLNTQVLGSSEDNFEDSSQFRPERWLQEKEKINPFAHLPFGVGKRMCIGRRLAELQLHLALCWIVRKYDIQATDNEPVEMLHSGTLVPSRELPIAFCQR

SMILES	Activity [1]	Activity [2]	Activity [3]	Activity [4]
C=C1/C(=C\C=C2/CCC[C@]3(C)[C@@H]([C@H](C)CCCC(C)(C)O)CC[C@@H]23)C[C@H](O)[C@H](OCCCO)[C@H]1O	2	13%		
C=C1/C(=C\C=C2/CCC[C@]3(C)[C@@H]([C@H](C)CCCC(C)(C)O)CC[C@@H]23)C[C@H](O)[C@@H](OCCCO)[C@H]1O		180%	180%	2%
C=C1/C(=C\C=C2/CCC[C@]3(C)[C@@H]([C@H](C)CCCC(C)(C)O)CC[C@@H]23)C[C@H](O)[C@@H](OCCC)[C@H]1O		64%		
